Measured values taken from ChEMBL document CHEMBL5113521, “Discovery of a Novel Oral Proteasome Inhibitor to Block NLRP3 Inflammasome Activation with Anti-inflammation Activity” (J Med Chem, 2022).

Tests used:
[1] = molecular target: T1, Proteasome Macropain subunit MB1 (Homo sapiens, UniProt P28074); experiment: Inhibition of 20S proteasome beta5 subunit (unknown origin) using Suc-LLVY-AMC as flurogenic substrate measured after 1 hr by fluorescence based analysis; settings: read-out: pIC50 (converted)
T1 sequence (P28074 whole entry): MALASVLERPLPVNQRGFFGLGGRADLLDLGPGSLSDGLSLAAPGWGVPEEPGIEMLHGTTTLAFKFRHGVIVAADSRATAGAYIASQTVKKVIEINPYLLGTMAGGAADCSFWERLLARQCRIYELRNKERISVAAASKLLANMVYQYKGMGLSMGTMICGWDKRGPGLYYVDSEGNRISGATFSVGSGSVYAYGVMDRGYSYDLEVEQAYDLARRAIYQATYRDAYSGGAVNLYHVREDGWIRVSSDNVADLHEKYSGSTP

HEK293 = experiment: Cytotoxicity against HEK293 cells at less than 20 uM incubated for 24 hrs; format: toxicity, cell-based; settings: human, hek293, 24 h
[2] = Cytotoxicity against HEK293 cells incubated for 24 hrs; format: toxicity, cell-based; settings: human
[3] = molecular target: NACHT, LRR and PYD domains-containing protein 3 (Mus musculus) (UniProt Q8R4B8); experiment: Inhibition of NLRP3 inflammasome activation in LPS-primed mouse J774.A1 cells assessed as reduction in IL-1beta secretion at 1 uM relative to control; format: cell-based
NACHT, LRR and PYD domains-containing protein 3 (Mus musculus), sequence (Q8R4B8 whole entry, the tested form may be a part): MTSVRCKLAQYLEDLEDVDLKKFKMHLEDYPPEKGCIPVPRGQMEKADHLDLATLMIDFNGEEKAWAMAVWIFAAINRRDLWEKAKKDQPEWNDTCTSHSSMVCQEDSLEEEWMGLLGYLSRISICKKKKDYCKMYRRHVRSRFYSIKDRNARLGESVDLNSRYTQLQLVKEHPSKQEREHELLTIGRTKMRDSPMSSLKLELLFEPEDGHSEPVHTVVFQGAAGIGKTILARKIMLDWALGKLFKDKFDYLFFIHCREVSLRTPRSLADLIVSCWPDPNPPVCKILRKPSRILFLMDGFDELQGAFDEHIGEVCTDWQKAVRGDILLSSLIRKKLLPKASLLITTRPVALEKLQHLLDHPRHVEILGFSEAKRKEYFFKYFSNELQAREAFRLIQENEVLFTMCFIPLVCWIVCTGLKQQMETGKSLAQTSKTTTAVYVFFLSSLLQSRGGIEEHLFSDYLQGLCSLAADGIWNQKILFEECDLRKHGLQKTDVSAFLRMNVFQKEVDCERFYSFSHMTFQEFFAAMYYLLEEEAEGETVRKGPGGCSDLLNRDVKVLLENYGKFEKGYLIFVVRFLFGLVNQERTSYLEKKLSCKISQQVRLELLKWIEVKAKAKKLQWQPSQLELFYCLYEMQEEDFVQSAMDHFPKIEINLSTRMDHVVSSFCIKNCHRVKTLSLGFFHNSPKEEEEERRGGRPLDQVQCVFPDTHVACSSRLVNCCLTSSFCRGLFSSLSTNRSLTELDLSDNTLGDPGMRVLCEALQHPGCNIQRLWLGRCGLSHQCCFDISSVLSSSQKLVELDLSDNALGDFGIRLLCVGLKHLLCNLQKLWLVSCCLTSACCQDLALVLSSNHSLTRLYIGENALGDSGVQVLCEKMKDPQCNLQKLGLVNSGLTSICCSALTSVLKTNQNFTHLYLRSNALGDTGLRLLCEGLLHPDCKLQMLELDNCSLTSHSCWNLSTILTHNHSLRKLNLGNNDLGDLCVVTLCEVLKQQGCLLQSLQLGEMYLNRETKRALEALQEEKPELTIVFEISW

SMILES	IC50 [1]	Activity (HEK293)	IC50 at 24 h [2]	inhibition [3]
CC(C)C[C@H](NC(=O)[C@H](Cc1ccccc1)NC(=O)c1cc(F)ccc1F)B(O)O	6.03 nM	–	–	–
CC(C)C[C@H](NC(=O)[C@H](CO)NC(=O)c1cc(Cl)ccc1Cl)B(O)O	5.13 nM	–	–	–
CC(C)C[C@H](NC(=O)[C@H](Cc1ccccc1)NC(=O)c1cccc(F)c1F)B(O)O	1.12 nM	Non-Toxic	< 79.4 nM	–
CC(C)C[C@H](NC(=O)[C@H](Cc1ccccc1)NC(=O)c1cc(Cl)ccc1Cl)B(O)O	6.31 nM	–	–	–
CC(C)C[C@H](NC(=O)CN(C)C(=O)c1cc(Cl)ccc1Cl)B(O)O	> 50.1 nM	–	–	–
CC[C@@H](C)[C@H](NC(=O)c1cc(Cl)ccc1Cl)C(=O)N[C@@H](CC(C)C)B(O)O	3.24 nM	–	–	–
O=C(O)C[C@@H]1CC[C@H](NC(=O)Cc2cccs2)B(O)O1	–	–	–	7.8%
CC(C)C[C@H](NC(=O)[C@H](CC(C)C)NC(=O)c1cc(Cl)ccc1Cl)B(O)O	4.07 nM	–	–	–
Cc1cncc(C(=O)N[C@@H](Cc2ccccc2)C(=O)N[C@@H](CC(C)C)B(O)O)n1	32.4 nM	–	–	–
CC(C)C[C@H](NC(=O)[C@H](Cc1ccccc1)NC(=O)c1cc(Cl)ccc1Cl)C(=O)O	50.1 nM	–	–	–
CC(C)C[C@H](NC(=O)[C@H](Cc1ccccc1)NC(=O)c1cnc2ccccc2n1)B(O)O	13.2 nM	–	–	–
CC(C)C[C@H](NC(=O)c1ccc(CNC(=O)c2cc(Cl)ccc2Cl)cc1)B(O)O	> 50.1 nM	–	–	–
COc1ccc(F)cc1C(=O)N[C@@H](Cc1ccccc1)C(=O)N[C@@H](CC(C)C)B(O)O	4.47 nM	–	–	–
CC(C)C[C@H](NC(=O)[C@H](Cc1ccccc1)NC(=O)c1ccc(F)cc1F)B(O)O	4.79 nM	–	–	–
CC(C)C[C@H](NC(=O)[C@H](Cc1ccccc1)NC(=O)c1ccc(Cl)cc1Cl)B(O)O	3.47 nM	–	–	–
COc1ccc(Cl)cc1C(=O)N[C@@H](Cc1ccccc1)C(=O)N[C@@H](CC(C)C)B(O)O	8.32 nM	–	–	–
CC(C)C[C@H](NC(=O)[C@H](Cc1ccccc1)NC(=O)c1ccccn1)B(O)O	6.76 nM	Non-Toxic	< 79.4 nM	–
CC(C)C[C@H](NC(=O)[C@H](Cc1ccc2ccccc2c1)NC(=O)c1cc(Cl)ccc1Cl)B(O)O	12 nM	–	–	–
CC(C)C[C@H](NC(=O)[C@H](Cc1ccc(O)cc1)NC(=O)c1cc(Cl)ccc1Cl)B(O)O	1 nM	Non-Toxic	< 79.4 nM	–
CC(C)C[C@H](NC(=O)[C@@H](NC(=O)c1cc(Cl)ccc1Cl)c1ccccc1)B(O)O	7.08 nM	–	–	–
CC(C)C[C@H](NC(=O)[C@H](Cc1ccccc1)NC(=O)c1cc(Cl)ccc1F)B(O)O	3.02 nM	–	–	–
CC(C)C[C@H](NC(=O)[C@H](Cc1ccccc1)NC(=O)c1c(Cl)cccc1Cl)B(O)O	3.02 nM	Non-Toxic	< 79.4 nM	–
CC(C)C[C@H](NC(=O)CNC(=O)c1cc(Cl)ccc1Cl)B(O)O	–	–	–	77%
CC(C)C[C@H](NC(=O)[C@H](Cc1ccccc1)NS(=O)(=O)c1cc(Cl)ccc1Cl)B(O)O	19.5 nM	–	–	–
CC(C)C[C@H](NC(=O)[C@H](Cc1ccccc1)NC(=O)c1nc(Cl)ccc1Cl)B(O)O	4.27 nM	Non-Toxic	< 79.4 nM	–
CC(C)C[C@H](NC(=O)c1cc(Cl)ccc1Cl)B(O)O	> 50.1 nM	–	–	–
CC(C)C[C@H](NC(=O)[C@H](Cc1ccccc1)NC(=O)c1cnccn1)B(O)O [BORTEZOMIB]	–	Non-Toxic	< 79.4 nM	–
CC(C)C[C@H](NC(=O)[C@H](Cc1ccccc1)NC(=O)c1cccc(Cl)c1Cl)B(O)O	1.2 nM	Non-Toxic	< 79.4 nM	–
CC(C)C[C@H](NC(=O)[C@@H](NC(=O)c1cc(Cl)ccc1Cl)C(C)C)B(O)O	0.708 nM	–	–	–
CC(C)C[C@H](NC(=O)[C@H](Cc1ccccc1)NC(=O)c1cnccn1)C(=O)O	50.1 nM	–	–	–
